According to PubChem BioAssay AID2060624 (Molecular Pharmacology Branch, DTP, NCI, 2025):
pIC50: −log10 of the molar value.

Test system: 217524-143-R1-J4-PDC spheroids with HUVEC/MSC, viability
Experiment: Anticancer human tumor 217524-143-R1-J4-PDC patient-derived pancreatic carcinoma cell line growth inhibition [CLK]
Conditions: for pIC50: curve of first compound; for viability, T/C: stronger effect = lower value
Source text: A high-throughput screen of multi-cell type tumor spheroids was designed to identify active combinations of […] and targeted small molecules. Complex spheroids include a stromal component modeled by human endothelial cells (HUVEC) and fibroblasts modeled by human mesenchymal stem cells (MSCs). The concentration ranges selected for each drug and investigational agent were based upon clinically achievable concentrations if the clinical Cmax of the agent was known.
Compounds. The drugs and investigational agents: cirtuvivint (SM08502; NSC835563), CC-671 (NSC850746), vemurafenib (NSC761431), tapotoclax (NSC804041), sotorasib (NSC818433), adagrasib (NSC831453), MRTX-1133 (NSC836407), BAY2416964 (NSC825713), copanlisib (NSC816437), inavolisib (NSC800729), abemaciclib (NSC768073), osimertinib (NSC779217), entinostat (NSC756642), eltanexor (KPT-8602, NSC794443), venetoclax (NSC766270), ceralasertib (NSC777638), bortezomib (NSC756655), olaparib (NSC753686), talazoparib (NSC767125), alisertib (NSC759677), peposertib (NSC802822), gemcitabine (NSC613327), 5-fluorouracil (NSC19893), SN-38 (NSC673596), oxaliplatin (NSC266046), paclitaxel (NSC125973), and doxorubicin (NSC123127), were obtained from the National Cancer Institute (NCI) Developmental Therapeutics Program Chemical Repository. The FDA-approved anticancer drug set is available from the Developmental Therapeutics Program at https://dtp.cancer.gov/organization/dscb/obtaining/available plates.htm. […] The stock solutions were prepared in dimethyl sulfoxide (DMSO, Sigma-Aldrich, St. Louis, MO, cat. D2650), except for the platinum complexes which were prepared in saline (Quality Biological, Gaithersburg, MD, cat. 114-055-101), at 800-fold the tested concentration and stored at -70 degrees C prior to their use. All drugs and investigational agents were tested over a range starting from a high concentration at or near the clinical Cmax and decreasing in half-log increments. If the clinical Cmax for an agent had not been determined, the highest concentration tested was 10 microM.
Cell Culture. All cells were maintained in an incubator at 37 degrees C and 5% CO2 with 95% humidity. The PDC lines were cultured according to standard operating procedures established by the NCI PDMR. Briefly, all PDCs were thawed and cultured in Matrigel-coated flasks prepared with a working solution of 1X Ham's F-12 nutrient mix, without supplementation (Invitrogen, Waltham, MA, cat. 11765054), 100 U/mL penicillin-streptomycin (Invitrogen, cat. 15140122), and 2.5% Matrigel (Corning Inc., Corning, NY, cat. 354248) for the first three passages. The 947758-054-R-J2-PDC line was cultured in 6B/Colon 1A media, which includes advanced DMEM/F-12 (Thermo Fisher Scientific, cat. 12634028), 10 mM HEPES (Thermo Fisher Scientific, cat. 15630080), 1X GlutaMAX supplement (Thermo Fisher Scientific, cat. 35050061), 0.1 mg/mL primocin (InvivoGen, cat. ant-pm-2), 10% defined fetal bovine serum, heat inactivated (HyClone Laboratories Inc., cat. SH30070.03HI), 1.25 mM N-Acetyl-L-cysteine (Sigma-Aldrich, cat. A9165), 10 mM nicotinamide (Sigma-Aldrich, cat. N0636), 1X B-27 supplement (Thermo Fisher Scientific, cat. 17504044), 1X N-2 supplement (Thermo Fisher Scientific, cat. 17502048), and 10 microM Y-27632 dihydrochloride (Tocris Bioscience, cat. 1254). The 876862-298-R-J1-PDC was cultured in 6E media, which includes all 6B/Colon 1A media components plus 50% L-WRN conditioned media (ATCC, cat. CRL-3276), 50 ng/mL recombinant human EGF recombinant protein (hEGF; Thermo Fisher Scientific, cat. PHG0311), 10 ng/mL recombinant human fibroblast growth factor 10 (hGFG-10; PeproTech, cat. 100-26), 1 ng/mL recombinant human fibroblast growth factor 2 (hFGF-2; PeproTech, cat. 100-18B), and 1 µM prostaglandin E2 (PGE2; Tocris, cat. 2296). The 227483-062-R1-J1-PDC line was cultured in Panc media, containing all 6E components except hFGF-2, with the addition of 500 nM SB-431542 (Selleckchem, cat. S1067) and 10 nM gastrin (Tocris, cat. 3006). […]
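Also: spheroids exposed to agents for seven days before reading.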
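For viability, T/C in this document: 100% = DMSO vehicle control viability.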

Compound: COC1C=CCC(C)C(C)S(=O)(=O)NC(=O)c2ccc3c(c2)N(CC2CCC21)CC1(CCCc2cc(Cl)ccc21)CO3 (configuration not stated) + CN1CCN(c2cc(C(=O)Nc3cc4cc(-c5cnn(C)c5)ccc4cn3)ccn2)CC1
- pIC50 (second compound 0.0316 µM): 5.19
- pIC50 (second compound 0.1 µM): 5.38
- pIC50 (second compound 0.316 µM): > 7.50
- pIC50 (second compound 1 µM): > 7.50
- pIC50 (second compound 3.16 µM): > 7.50
- pIC50 (second compound 10 µM): > 7.50
- viability, T/C (second compound 0.0316 µM, first compound 0.0316 µM): 90.2%
- viability, T/C (second compound 0.0316 µM, first compound 0.1 µM): 93.2%
- viability, T/C (second compound 0.0316 µM, first compound 0.316 µM): 75%
- viability, T/C (second compound 0.0316 µM, first compound 1 µM): 91.2%
- viability, T/C (second compound 0.0316 µM, first compound 3.16 µM): 107%
- viability, T/C (second compound 0.0316 µM, first compound 10 µM): 23.8%
- viability, T/C (second compound 0.1 µM, first compound 0.0316 µM): 65.7%
- viability, T/C (second compound 0.1 µM, first compound 0.1 µM): 67.5%
- viability, T/C (second compound 0.1 µM, first compound 0.316 µM): 56%
- viability, T/C (second compound 0.1 µM, first compound 1 µM): 61.4%
- viability, T/C (second compound 0.1 µM, first compound 3.16 µM): 58.5%
- viability, T/C (second compound 0.1 µM, first compound 10 µM): 24.5%
- viability, T/C (second compound 0.316 µM, first compound 0.0316 µM): 23.9%
- viability, T/C (second compound 0.316 µM, first compound 0.1 µM): 23.3%
- viability, T/C (second compound 0.316 µM, first compound 0.316 µM): 23.3%
- viability, T/C (second compound 0.316 µM, first compound 1 µM): 22.9%
- viability, T/C (second compound 0.316 µM, first compound 3.16 µM): 27%
- viability, T/C (second compound 0.316 µM, first compound 10 µM): 16.6%
- viability, T/C (second compound 1 µM, first compound 0.0316 µM): 2.49%
- viability, T/C (second compound 1 µM, first compound 0.1 µM): 1.84%
- viability, T/C (second compound 1 µM, first compound 0.316 µM): 1.71%
- viability, T/C (second compound 1 µM, first compound 1 µM): 1.6%
- viability, T/C (second compound 1 µM, first compound 3.16 µM): 1.08%
- viability, T/C (second compound 1 µM, first compound 10 µM): 1.77%
- viability, T/C (second compound 3.16 µM, first compound 0.0316 µM): 0.91%
- viability, T/C (second compound 3.16 µM, first compound 0.1 µM): 1.31%
- viability, T/C (second compound 3.16 µM, first compound 0.316 µM): 0.81%
- viability, T/C (second compound 3.16 µM, first compound 1 µM): 1%
- viability, T/C (second compound 3.16 µM, first compound 3.16 µM): 1.26%
- viability, T/C (second compound 3.16 µM, first compound 10 µM): 0.8%
- viability, T/C (second compound 10 µM, first compound 0.0316 µM): 1.26%
- viability, T/C (second compound 10 µM, first compound 0.1 µM): 0.35%
- viability, T/C (second compound 10 µM, first compound 0.316 µM): 0.37%
- viability, T/C (second compound 10 µM, first compound 1 µM): 0.37%
- viability, T/C (second compound 10 µM, first compound 3.16 µM): 0.36%
- viability, T/C (second compound 10 µM, first compound 10 µM): 1.06%
